This note sets out measurements from ChEMBL document CHEMBL1201862, “PubChem BioAssay data set” (2004).

Among the test systems are 786-0; BT-549; COLO 205; HCC 2998; HOP-92; Hs-578T; IGROV-1; K562; LOX IMVI; M14; MCF7; MDA-MB-435; MOLT-4; NCI-H23; PC-3; RXF 393; SF-539; SK-OV-3; SN12C; SW-620.
Common to all, as to assay: inhibition of tumour cell growth, NCI panel, 48 h

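Compound exposure: 48 hours, 5 concentrations, 96-well plates. GI50: concentration for 50% inhibition of growth.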 Activity calls are given as the source filed them. Cut-off read from the data, not from the text of the source: active = GI50 up to about 1.1 µM and inactive = higher.

As to `COc1cc(C2c3cc4c(cc3OC(NNC(N)=O)C2C)OCO4)cc(OC)c1O` (stereo not given), the GI50 in the experiment with 786-0 was 2.99 µM (inactive); in the experiment with BT-549, 24.5 µM (inactive); with COLO 205 it was 2.59 µM (inactive); in the experiment on HCC 2998 it was 2.54 µM (inactive); with HOP-92 it was 15.3 µM (inactive); in the experiment with Hs-578T, 2.22 µM (inactive). Also, the GI50 in the experiment on IGROV-1 is 1.62 µM (inactive); with K562 it was 0.433 µM (active); in the experiment on LOX IMVI, 4.06 µM (inactive); in the experiment with M14, 2.73 µM (inactive); in the experiment with MCF7, 1.64 µM (inactive); in the experiment with MDA-MB-435, 0.324 µM (active). The GI50 with MOLT-4 was 2.58 µM (inactive); in the experiment with NCI-H23, 4.92 µM (inactive); with PC-3 it was 1.67 µM (inactive); in the experiment with RXF 393, 0.598 µM (active); in the experiment on SF-539 it was 0.933 µM (active); with SK-OV-3 it was 3.11 µM (inactive). The GI50 is 4.9 µM (inactive) in the experiment on SN12C and 1.2 µM (inactive) in the experiment with SW-620.

Take `O=C(CN1C(=O)CC(c2ccccc2)(c2ccccc2)C1=O)N1CCN(CCO)CC1`: the GI50 with 786-0, with BT-549, in the experiment on COLO 205, with HCC 2998, in the experiment with HOP-92 and in the experiment on Hs-578T was > 100 µM (inactive) in each case. Besides, the GI50 with IGROV-1, with K562, with LOX IMVI, in the experiment with M14, with MCF7 and in the experiment on MDA-MB-435 was > 100 µM (inactive) each time. The GI50 in the experiment with MOLT-4, in the experiment with NCI-H23, in the experiment on PC-3, in the experiment on RXF 393, with SF-539 and in the experiment on SK-OV-3 was > 100 µM (inactive) throughout. Also, the GI50 with SN12C and in the experiment on SW-620 was > 100 µM (inactive) each time.

With `CC12CC3OC(=O)C1COC14OC5(C2C1=O)C(O)(CCC1C4CC2OC24CC=CC(=O)C14C)C(=O)OC35C` (stereo not given), the GI50 with 786-0 is 13.2 µM (inactive); in the experiment with BT-549 it was 2.64 µM (inactive); with COLO 205, 10.3 µM (inactive); with HCC 2998 it was 18.7 µM (inactive); with HOP-92 it was 21.8 µM (inactive); in the experiment with Hs-578T it was > 100 µM (inactive). Besides, the GI50 in the experiment with IGROV-1 was 18.4 µM (inactive); in the experiment with K562 it was 12.8 µM (inactive); with LOX IMVI, 11.3 µM (inactive); in the experiment on M14 it was 17.2 µM (inactive); in the experiment on MCF7, 8.85 µM (inactive); with MDA-MB-435 it was 13.6 µM (inactive). Besides, the GI50 is 15.5 µM (inactive) in the experiment on MOLT-4; 15.4 µM (inactive) in the experiment with NCI-H23; 20.3 µM (inactive) in the experiment with PC-3; 3.99 µM (inactive) in the experiment with RXF 393; 12.6 µM (inactive) in the experiment with SF-539; 28.6 µM (inactive) in the experiment with SK-OV-3. The GI50 in the experiment with SN12C was 21.5 µM (inactive); with SW-620 it was 12.4 µM (inactive).

With `O=C(O)C1C2c3ccccc3C(c3ccccc32)C1C(=O)NCC1CC1` (stereo not given), the GI50 is > 100 µM (inactive) in the experiment with 786-0; 60 µM (inactive) in the experiment on BT-549; 54.5 µM (inactive) in the experiment on COLO 205; 13.5 µM (inactive) in the experiment with HCC 2998; 70.5 µM (inactive) with HOP-92; 63.5 µM (inactive) with Hs-578T. For the same compound, the GI50 in the experiment with IGROV-1 was 72.6 µM (inactive); in the experiment on K562 it was 45.3 µM (inactive); in the experiment on LOX IMVI, 65.8 µM (inactive); in the experiment with M14, 61.9 µM (inactive); in the experiment with MCF7, 52.1 µM (inactive); with MDA-MB-435, 51.2 µM (inactive). In addition, the GI50 with MOLT-4 was 29.9 µM (inactive); with NCI-H23, 47.9 µM (inactive); in the experiment with PC-3 it was 53.7 µM (inactive); in the experiment with RXF 393 it was 97.5 µM (inactive); with SF-539 it was > 100 µM (inactive); in the experiment with SK-OV-3, 56.2 µM (inactive). Further, the GI50 is 55.2 µM (inactive) in the experiment with SN12C and 50.2 µM (inactive) with SW-620.

In the case of `COc1ccc(/C(C)=N/OC(=O)c2c(-c3ccccc3Cl)noc2C)cc1CN1CCOCC1`, the GI50 in the experiment on 786-0 is 24.5 µM (inactive); with BT-549 it was 22.2 µM (inactive); in the experiment on COLO 205 it was 16.2 µM (inactive); in the experiment on HCC 2998, 30.5 µM (inactive); in the experiment with HOP-92, 24.2 µM (inactive); in the experiment on Hs-578T it was 28.9 µM (inactive). In addition, the GI50 is 21.1 µM (inactive) in the experiment with IGROV-1; 28.2 µM (inactive) in the experiment with K562; 14.9 µM (inactive) in the experiment with LOX IMVI; 14 µM (inactive) with M14; 20.8 µM (inactive) in the experiment on MCF7; 20.8 µM (inactive) in the experiment on MDA-MB-435. For the same compound, the GI50 is 24 µM (inactive) with MOLT-4; 32.6 µM (inactive) in the experiment with NCI-H23; 24.2 µM (inactive) with PC-3; 26.3 µM (inactive) in the experiment with RXF 393; 24.8 µM (inactive) with SF-539; 29.4 µM (inactive) in the experiment on SK-OV-3. For the same compound, the GI50 with SN12C is 18.7 µM (inactive); in the experiment on SW-620 it was 43.1 µM (inactive).

As to `O=C(/C=C/c1ccc2c(c1)OCO2)CC(=O)C(=O)c1c[nH]c2ccccc12`, the GI50 in the experiment on 786-0 is 41.9 µM (inactive); in the experiment on BT-549, 25.9 µM (inactive); with COLO 205, 35.3 µM (inactive); in the experiment on HCC 2998, 16.3 µM (inactive); with HOP-92 it was 81.7 µM (inactive); in the experiment on Hs-578T, 29 µM (inactive). Further, the GI50 in the experiment with IGROV-1 is 47.8 µM (inactive); with K562, 24.2 µM (inactive); with LOX IMVI, 40.2 µM (inactive); in the experiment on M14 it was 63.2 µM (inactive); with MCF7, 32.2 µM (inactive); in the experiment on MDA-MB-435 it was 24.3 µM (inactive). Moreover, the GI50 was 20.7 µM (inactive) with MOLT-4; 34.2 µM (inactive) in the experiment on NCI-H23; 37 µM (inactive) with PC-3; 31.6 µM (inactive) with RXF 393; 32.4 µM (inactive) with SF-539; 35.2 µM (inactive) in the experiment with SK-OV-3. The GI50 in the experiment on SN12C is 45.8 µM (inactive); with SW-620 it was 29.4 µM (inactive).

Take `COc1ccc(OC)c2c1C[C@@H]1C(C#N)N3[C@H](Cc4c(OC)ccc(OC)c4[C@@H]3C)C(=O)N1[C@H]2C` (stereo not given in full): the GI50 was 3.01 µM (inactive) with 786-0; 1.97 µM (inactive) with BT-549; 1.84 µM (inactive) in the experiment with COLO 205; 3.61 µM (inactive) with HCC 2998; 2.06 µM (inactive) in the experiment with HOP-92; 4.42 µM (inactive) with Hs-578T. Further, the GI50 in the experiment with IGROV-1 was 4.56 µM (inactive); in the experiment on K562 it was 2.27 µM (inactive); in the experiment on LOX IMVI it was 2.44 µM (inactive); in the experiment with M14, 2.67 µM (inactive); with MCF7 it was 3.91 µM (inactive); in the experiment on MDA-MB-435 it was 3.33 µM (inactive). Moreover, the GI50 in the experiment with MOLT-4 is 2.43 µM (inactive); in the experiment on NCI-H23, 4.5 µM (inactive); in the experiment with PC-3, 3.18 µM (inactive); with RXF 393, 1.83 µM (inactive); with SF-539, 2.5 µM (inactive); in the experiment on SK-OV-3 it was 11.9 µM (inactive). In addition, the GI50 is 4.42 µM (inactive) with SN12C and 2.86 µM (inactive) in the experiment with SW-620.

On to `CCCCCCCCCCCCC1NC(=N)NC2(CCCO2)C1C(=O)OC` (stereo not given), for which the GI50 is 4.24 µM (inactive) in the experiment with 786-0; 4.3 µM (inactive) in the experiment with BT-549; 3.03 µM (inactive) in the experiment with COLO 205; 6.37 µM (inactive) in the experiment on HCC 2998; 5.09 µM (inactive) in the experiment with HOP-92; 2.72 µM (inactive) in the experiment on Hs-578T. Also, the GI50 in the experiment on IGROV-1 was 2.3 µM (inactive); in the experiment on K562, 1.91 µM (inactive); in the experiment on LOX IMVI, 1.69 µM (inactive); with M14, 3.33 µM (inactive); in the experiment on MCF7, 2.9 µM (inactive); with MDA-MB-435 it was 3.34 µM (inactive). In addition, the GI50 in the experiment with MOLT-4 is 1.75 µM (inactive); with NCI-H23, 4.39 µM (inactive); in the experiment on PC-3, 1.67 µM (inactive); in the experiment on RXF 393 it was 3 µM (inactive); with SF-539 it was 4.9 µM (inactive); in the experiment on SK-OV-3, 10 µM (inactive). Besides, the GI50 in the experiment on SN12C is 8.02 µM (inactive); in the experiment on SW-620 it was 1.97 µM (inactive).

`CC1CCC(=O)C(C(=O)CC2CC(=O)N(C)C(=O)C2)C1` (stereo not given): the GI50 with 786-0, in the experiment on BT-549, in the experiment on COLO 205, in the experiment on HCC 2998, with HOP-92 and in the experiment on Hs-578T was > 100 µM (inactive) in each case. The GI50 in the experiment on IGROV-1, in the experiment on K562, with LOX IMVI, with M14, in the experiment on MCF7 and in the experiment on MDA-MB-435 was > 100 µM (inactive) throughout. Further, the GI50 in the experiment with MOLT-4, with NCI-H23, in the experiment with PC-3, in the experiment with RXF 393, with SF-539 and with SK-OV-3 was > 100 µM (inactive) each time. The GI50 in the experiment with SN12C and in the experiment with SW-620 was > 100 µM (inactive) in each case.

As for `CNc1ccc(-c2nc3cc(C)ccc3o2)cc1`, the GI50 is 47.3 µM (inactive) with 786-0; 45.8 µM (inactive) in the experiment on BT-549; > 100 µM (inactive) in the experiment with COLO 205; > 100 µM (inactive) in the experiment with HCC 2998; 84.9 µM (inactive) with HOP-92; 64.6 µM (inactive) with Hs-578T. The GI50 in the experiment with IGROV-1, with K562, in the experiment on LOX IMVI, with M14, with MCF7 and in the experiment on MDA-MB-435 was > 100 µM (inactive) in each case. Moreover, the GI50 with MOLT-4 was 34.9 µM (inactive); in the experiment with NCI-H23 it was > 100 µM (inactive); in the experiment on PC-3 it was > 100 µM (inactive); in the experiment on RXF 393, 22.4 µM (inactive); in the experiment on SF-539, 49.5 µM (inactive); with SK-OV-3, 18.2 µM (inactive). Also, the GI50 with SN12C and in the experiment with SW-620 was > 100 µM (inactive) in each case.
